In article PMC10840383, “Clinical features, functional consequences, and rescue pharmacology of missense GRID1 and GRID2 human variants” (Human Molecular Genetics, 2023):

Key:
GluD1-N651S = target: T1, GluD1-N651S (Homo sapiens, UniProt Q9ULK0, N651S); test: TEVC of constitutive current, Xenopus oocytes expressing GluD1-N651S; format: cell-based; settings: positive = increase, negative = decrease of activity
T1 construct: expressed in transfected cells; host or cells: Xenopus laevis oocytes injected with cRNA
T1 sequence (Q9ULK0 21-1009 N651S): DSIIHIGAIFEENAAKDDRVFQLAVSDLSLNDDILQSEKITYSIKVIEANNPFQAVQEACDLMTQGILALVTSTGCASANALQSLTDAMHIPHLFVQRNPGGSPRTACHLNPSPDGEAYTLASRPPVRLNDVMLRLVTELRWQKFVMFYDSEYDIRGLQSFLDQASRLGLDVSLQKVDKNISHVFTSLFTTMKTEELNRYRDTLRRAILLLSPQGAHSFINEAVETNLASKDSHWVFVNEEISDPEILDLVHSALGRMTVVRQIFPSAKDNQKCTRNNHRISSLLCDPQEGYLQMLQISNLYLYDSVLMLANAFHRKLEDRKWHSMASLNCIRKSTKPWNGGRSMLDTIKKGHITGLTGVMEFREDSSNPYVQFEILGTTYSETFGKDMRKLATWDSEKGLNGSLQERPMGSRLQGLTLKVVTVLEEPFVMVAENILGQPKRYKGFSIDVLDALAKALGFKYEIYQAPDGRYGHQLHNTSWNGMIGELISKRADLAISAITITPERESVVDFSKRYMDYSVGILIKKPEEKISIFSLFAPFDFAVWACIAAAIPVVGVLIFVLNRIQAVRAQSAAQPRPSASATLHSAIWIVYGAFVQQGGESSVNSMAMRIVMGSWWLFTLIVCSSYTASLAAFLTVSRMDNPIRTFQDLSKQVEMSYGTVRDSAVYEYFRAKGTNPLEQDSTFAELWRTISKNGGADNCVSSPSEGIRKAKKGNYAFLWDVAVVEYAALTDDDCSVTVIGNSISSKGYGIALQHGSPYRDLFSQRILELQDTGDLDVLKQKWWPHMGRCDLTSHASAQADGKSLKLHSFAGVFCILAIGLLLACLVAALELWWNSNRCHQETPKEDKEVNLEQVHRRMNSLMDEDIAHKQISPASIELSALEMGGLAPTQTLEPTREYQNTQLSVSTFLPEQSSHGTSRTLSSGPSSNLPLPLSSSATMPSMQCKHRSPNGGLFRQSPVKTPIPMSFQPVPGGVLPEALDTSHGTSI

GluD2-A654T receptor = target: GluD2-A654T receptor; set-up: method as in PMID 12606689; settings: read-out: Pentamidine IC50; cited from earlier work

Structure (SMILES)	D-Serine effect (Baseline −10 mM D-Serine) (GluD1-N651S; 10 mM D-serine)	Pentamidine effect (Baseline −100 μM Pentamidine) (GluD1-N651S; 100 μM pentamidine)	IC50 (GluD2-A654T receptor) [µM]
N[C@H](CO)C(=O)O [D-serine]	7.6 ± 1.6 (10) nA		
N=C(N)c1ccc(OCCCCCOc2ccc(C(=N)N)cc2)cc1 [Pentamidine, pentamidine]		38 ± 8.3 (10) nA	11
